Assay results taken from patent US20220306695A1, “COMPSTATIN ANALOGUES AND THEIR MEDICAL USES” (priority 2019, published 2022).
Where two headings read alike, the source gives them in different places. Starred links: 1 amine or outer side, 2 acyl side, 3 side chain; linkers in the order of their positions; H or OH if unused. Positions of bridges follow the written chain, without caps; N, C: chain ends. Non-standard residues stand in square brackets, D forms with d. Residues, ends and D or L forms follow the SMILES beside them. Groups on a side chain read outwards from the residue. *: point of attachment. Trp(1-Me) = Cn1cc(C[C@H](N)C(=O)O)c2ccccc21; Abu(4-yl) = O=C([C@H](CC[*:3])N[*:1])[*:2]; C18 diacid = O=C(O)CCCCCCCCCCCCCCCCC(=O)*; γGlu = O=C(O)[C@H](CCC(=O)[*:2])N[*:1]; AEEA = NCCOCCOCC(=O)O; Sar = CNCC(=O)O

How the values were obtained:
[1] = assay type: physicochemical; conditions: 50 mg/mL peptide; for Covalent oligomer content after 14 days 40° C. (%), F1 / Purity after 14 days 40° C. (%), F1: F1: 20 mM phosphate pH 5.5; for Covalent oligomer content after 14 days 40° C. (%), F1 / Covalent oligomer content after 14 days 40° C. (%), F2: denaturing SEC; for Purity after 14 days 40° C. (%), F1 / Purity after 14 days 40° C. (%), F2 / Purity after 14 days 40° C. (%), F3: normalized purity (HPLC)
Procedure: Chemical stability of compstatin analogues with cystathionine or disulfide bridge. Stability was assessed in three formulations at 50 mg/mL peptide, F1:20 mM phosphate pH 5.5, F2:20 mM phosphate pH 6.5 and F3:20 mM phosphate pH 7.5. The formulations were prepared by direct dissolution of peptide from lyophilized portions in the respective formulations. pH was adjusted to target with 1 M NaOH and 1 M HCl. Chemical stability was assessed under accelerated conditions (14 days, 40° C.) and evaluated as change in purity by reverse phase HPLC, and change in covalent oligomer content by denaturing SEC. The formulations were placed at 40° C. with analysis points at T=0, 7 and 14 days. On each time point a small volume was extracted and diluted to 2 mg/mL and tested by reverse phase HPLC and denaturing SEC. Purity was assessed by reverse phase HPLC using an Ultimate 3000 system for binary gradient application equipped with a Kinetix C18 column (cat. no. 00F-4462-Y0, 150 mm×3 mm, 2.6 μm) run at 0.5 ml/min with a gradient of buffer A (0.3% TFA, aq.) and buffer B (0.3% TFA, 90% MeCN, aq.) gradient from 40% B to 70% B over 20 min. Detection was done using a diode array detector set to 220 nm. Covalent oligomer formation was assessed by denaturing SEC (size exclusion chromatography) using an Ultimate 3000 system equipped with a TSKgel SuperSW 2000 column (cat. no. 818674, 300 mm×3 mm, 4 μm) run at 0.5 ml/min with isocratic flow of buffer A (0.1% TFA, 45% MeCN, aq.), 10 min. Detection was done using a diode array detector set to 215 nm. Compounds 126 and 156 were carefully weighed out and dissolved in formulations F1, F2 and F3 to a target concentration of 50 mg/mL. Once visually dissolved, concentration was confirmed by absorbance at 280 nm, and samples were placed in stability at 40° C. Samples for analysis were extracted on T=0, 7 and 14 days from a 40° C. climate chamber. The extracted volume was dissolved 1:25 (final concentration: 2 mg/mL) in 20 mM phosphate pH 5.5, 6.5 or 7.5 and measured by reverse phase HPLC and denaturing SEC by injection of 0.4 μL (column load […]). The resulting chromatograms were integrated to determine chemical purity by reverse phase HPLC and covalent oligomer content by denaturing SEC.

[2] = test system: classical complement pathway; assay: In vitro haemolysis assay (inhibition of classical complement pathway); assay type: cell-based, human; conditions: Table 3; human serum, sensitized sheep red blood cells; read-out: IC50[nM], in vitro analysis of inhibition of hemolysis
How it was run: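 Serially diluted compound (9 points) was preincubated 15 min at room temperature with diluted human serum, titrated per batch to give 70-90% maximal haemolysis, in Tris/casein buffer pH 7.4 with Mg2+/Ca2+. Antibody-sensitized sheep erythrocytes were then added for 30 min at 37° C, and the reaction was stopped with EDTA. Haemolysis was read at A405, with IC50 from 4PL fit.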

in vivo = assay: in vivo; set-up: species or system Cynomolgus monkeys (Macaca fascicularis); conditions: male, cynomolgus monkey, sc, 1840 nmol/kg, t½
Procedure: Healthy male Cynomolgus monkeys (Macaca fascicularis) received single subcutaneous administrations of each test substance. Compounds were formulated in 20 mM phosphate adjusted with NaOH to pH 7.5 and mannitol for isotonicity and dosed at 1840 nmol/kg. Blood was collected from a femoral vein from each animal at the following times: Pre-dose, 1, 2, 4, 8, 24, 48, 72, 96 and 120 h (10 sampling times). Blood was collected into serum separation tubes and allowed to clot at room temperature. The tubes were centrifuged and resulting serum was aliquoted and snap-frozen over dry-ice and stored at nominally −80° C. until analysis. All NHP studies were performed in accordance with animal welfare laws and regulations, including approval of the study by a local ethical review process.
In order to assess pharmacokinetic half-life (t %/), serum samples isolated from non-human primates at specific time points after dosing were analysed for total drug compound after sample preparation by solid phase extraction (SPE) and liquid chromatography mass spectrometry (LC-MS/MS) using analogue internal standard. Single measurement of serum concentrations were used for calculation of the pharmacokinetic parameters using the non-compartmental approach in Phoenix WinNonlin 6.3. Plasma terminal elimination half-life (ty) was determined as In(2)/λz where λz is the magnitude of the slope of the log linear regression of the log concentration versus time profile during the terminal phase.

SMILES | Covalent oligomer content after 14 days 40° C. (%), F1 [1] [%] | Purity after 14 days 40° C. (%), F1 [1] [%] | Covalent oligomer content after 14 days 40° C. (%), F2 ([1]; F2: 20 mM phosphate pH 6.5) [%] | Purity after 14 days 40° C. (%), F2 ([1]; F2: 20 mM phosphate pH 6.5) [%] | Covalent oligomer content after 14 days 40° C. (%), F2 ([1]; F3: 20 mM phosphate pH 7.5) [%] | Purity after 14 days 40° C. (%), F3 ([1]; F3: 20 mM phosphate pH 7.5) [%] | IC50 [2] [nM] | half-life (in vivo) [h]
CC[C@H](C)[C@@H]1NC(=O)[C@@H](NC(=O)[C@H](Cc2ccccc2)NC(=O)[C@H](CCC(=O)O)NC(=O)[C@H](CO)NC(C)=O)CSSC[C@@H](C(=O)N(C)CC(=O)N[C@@H](CCC(=O)O)C(=O)NCC(=O)N[C@@H](C)C(=O)N[C@@H](CCCCNC(=O)COCCOCCNC(=O)CC[C@H](NC(=O)COCCOCCNC(=O)CNC(=O)CC[C@H](NC(=O)CCCCCCCCCCCCCCCCC(=O)O)C(=O)O)C(=O)O)C(N)=O)NC(=O)[C@H](CCCNC(=N)N)NC(=O)[C@H](Cc2c[nH]cn2)NC(=O)[C@H](CCC(=O)O)NC(=O)CNC(=O)[C@H](Cc2c[nH]c3ccccc23)NC(=O)[C@H](CC(=O)O)NC(=O)[C@H](CCC(N)=O)NC(=O)[C@H](Cc2cn(C)c3ccccc23)NC1=O [Compound 119] (Ac-SEFCI[Trp(1-Me)]QDWGEHRC[Sar]EGAK([AEEA-γGlu-AEEA-Gly-γGlu-C18 diacid])-NH2; disulfide 4-14) | 80 | 23 | 66 | 31 | 48 | 46 | < 100 | 139
CC[C@H](C)[C@@H]1NC(=O)[C@@H](NC(=O)[C@H](Cc2ccccc2)NC(=O)[C@H](CCC(=O)O)NC(=O)[C@H](CO)NC(C)=O)CSSC[C@@H](C(=O)N[C@H](C(=O)N[C@@H](CCC(=O)O)C(=O)NCC(=O)N[C@@H](CCC(=O)O)C(=O)NCCOCCOCC(=O)N[C@@H](CCC(=O)O)C(=O)N[C@@H](CO)C(=O)N[C@@H](CCCCNC(=O)CC[C@H](NC(=O)CCCCCCCCCCCCCCCCC(=O)O)C(=O)O)C(N)=O)[C@@H](C)O)NC(=O)[C@H](CCCNC(=N)N)NC(=O)[C@H](Cc2c[nH]cn2)NC(=O)[C@H](CCC(=O)O)NC(=O)CNC(=O)[C@H](Cc2c[nH]c3ccccc23)NC(=O)[C@H](CC(=O)O)NC(=O)[C@H](CCC(N)=O)NC(=O)[C@H](Cc2cn(C)c3ccccc23)NC1=O [Compound 142] (Ac-SEFCI[Trp(1-Me)]QDWGEHRCTEGE[AEEA]ESK([γGlu-C18 diacid])-NH2; disulfide 4-14) | 63 | 50 | 64 | 37 | 56 | 45 | < 100 | 143
CC[C@H](C)[C@@H]1NC(=O)[C@@H](NC(=O)[C@H](Cc2ccccc2)NC(=O)[C@H](CCC(=O)O)NC(=O)[C@H](CO)NC(C)=O)CSCC[C@@H](C(=O)N(C)CC(=O)N[C@@H](CCC(=O)O)C(=O)NCCOCCOCC(=O)NCCOCCOCC(=O)N[C@@H](CCCCNC(=O)CC[C@H](NC(=O)CNC(=O)CC[C@H](NC(=O)CCCCCCCCCCCCCCCCC(=O)O)C(=O)O)C(=O)O)C(N)=O)NC(=O)[C@H](CCCNC(=N)N)NC(=O)[C@H](Cc2c[nH]cn2)NC(=O)[C@H](CCC(=O)O)NC(=O)CN(C)C(=O)[C@H](Cc2c[nH]c3ccccc23)NC(=O)[C@H](CC(=O)O)NC(=O)[C@H](CCC(N)=O)NC(=O)[C@H](Cc2cn(C)c3ccccc23)NC1=O [Compound 147, Ac-SEFA(1)I[1-Me-Trp]QDW[Sar]EHRhC(1)[Sar]E[Peg3][Peg3]-K([17-carboxy-heptadecanoyl][γGlu]G[γGlu])-NH2] (Ac-SEFCI[Trp(1-Me)]QDW[Sar]EHR[Abu(4-yl)][Sar]E[AEEA][AEEA]K([γGlu-Gly-γGlu-C18 diacid])-NH2; thioether 4-14) | 0.6 | 98 | 0.1 | 99 | 0.2 | 99 | < 100 | 108
CC[C@H](C)[C@@H]1NC(=O)[C@@H](NC(=O)[C@H](Cc2ccccc2)NC(=O)[C@H](CCC(=O)O)NC(=O)[C@H](CO)NC(C)=O)CSCC[C@@H](C(=O)N(C)CC(=O)N[C@@H](CCC(=O)O)C(=O)NCC(=O)N[C@@H](CCC(=O)O)C(=O)NCCOCCOCC(=O)N[C@@H](CCC(=O)O)C(=O)N[C@@H](CO)C(=O)N[C@@H](CCCCNC(=O)CC[C@H](NC(=O)CNC(=O)CC[C@H](NC(=O)CCCCCCCCCCCCCCCCC(=O)O)C(=O)O)C(=O)O)C(N)=O)NC(=O)[C@H](CCCNC(=N)N)NC(=O)[C@H](Cc2c[nH]cn2)NC(=O)[C@H](CCC(=O)O)NC(=O)CN(C)C(=O)[C@H](Cc2c[nH]c3ccccc23)NC(=O)[C@H](CC(=O)O)NC(=O)[C@H](CCC(N)=O)NC(=O)[C@H](Cc2cn(C)c3ccccc23)NC1=O [Compound 150, Ac-SEFA(1)I[1-Me-Trp]QDW[Sar]EHRhC(1)[Sar]EGE[Peg3]ES-K([17-carboxy-heptadecanoyl][γGlu]G[γGlu])-NH2] (Ac-SEFCI[Trp(1-Me)]QDW[Sar]EHR[Abu(4-yl)][Sar]EGE[AEEA]ESK([γGlu-Gly-γGlu-C18 diacid])-NH2; thioether 4-14) | 0.7 | 98 | 0.1 | 100 | 0.1 | 100 | < 100 | 120
